Patent US9884048B2, “ERK inhibitors” (Merck Sharp & Dohme Corp., priority 2014, dated 2018)

target: phosphorylated active hERK2 enzyme (Homo sapiens (Human), UniProt P28482); details: read-out: ERK2 IC50; IMAP-FP assay; 0.5 nM hERK2, 30 μM ATP; 10 point titration, 3 μM starting concentration
Sequence (P28482 whole entry): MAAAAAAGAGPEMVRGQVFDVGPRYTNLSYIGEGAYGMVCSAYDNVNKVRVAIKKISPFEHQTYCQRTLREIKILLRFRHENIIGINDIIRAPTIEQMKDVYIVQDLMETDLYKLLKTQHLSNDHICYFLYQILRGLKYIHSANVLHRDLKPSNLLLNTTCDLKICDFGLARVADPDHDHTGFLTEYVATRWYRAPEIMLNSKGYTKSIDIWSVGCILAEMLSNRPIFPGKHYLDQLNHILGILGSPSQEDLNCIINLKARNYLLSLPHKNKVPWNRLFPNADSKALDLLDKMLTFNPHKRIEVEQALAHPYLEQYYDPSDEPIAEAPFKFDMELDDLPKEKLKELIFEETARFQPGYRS
Method: Active Human ERK2 (hERK2) Activity Assay:
Activated ERK2 activity was determined in an IMAP-FP assay (Molecular Devices). […] The final reaction in each well of 25 μL consists of 0.5 nM hERK2, 900 nM unlabeled peptide, 80 nM labeled-peptide, and 30 μM ATP. Phosphorylation reactions were allowed to proceed for 60 minutes and were immediately quenched by the addition of 60 μL IMAP detection beads (1:1000 dilutions) in IMAP binding buffer (Molecular Devices) with 24 mM NaCl. Plates were read on EnVision reader after 60 minutes binding equilibration using Fluorescence Polarization protocol (Perkin Elmer).

Question: With COCCNCc1nc(NC(=O)N[C@H](C)c2ccccc2)cc2cnn(-c3ccc(F)cc3)c12 [Example 318, 1-[1-(4-Fluorophenyl)-7-{[(2-methoxyethyl)amino]methyl}-1H-pyrazolo[3,4-c]pyridin-5-yl]-3-[(1R)-1-phenylethyl]urea] as the molecule, how does the IC50 read?
Answer: 0.141 µM

Question: With C[C@@H](NC(=O)Nc1cc2cnn(-c3ccc(F)cc3)c2c(CN)n1)c1ccccc1 [Example 319, 1-[7-(aminomethyl)-1-(4-fluorophenyl)-1H-pyrazolo[3,4-c]pyridin-5-yl]-3-[(1R)-1-phenylethyl]urea] as the molecule, how does the IC50 read?
Answer: 0.515 µM

Question: With C[C@@H](NC(=O)Nc1cc2cnn(-c3ccc(F)cc3)c2c(CNCCN(C)C)n1)c1ccccc1 [Example 320, 1-[7-({[2-(dimethylamino)ethyl]amino}methyl)-1-(4-fluorophenyl)-1H-pyrazolo[3,4-c]pyridin-5-yl]-3-[(1R)-1-phenylethyl]urea] as the molecule, how does the IC50 read?
Answer: 1.24 µM

Question: How did the IC50 turn out when COCCNCc1nc(NC(=O)N[C@H](C)c2ccccc2)cc2cnn(-c3ccnc(C)c3)c12 [Example 321, 1-[7-{[(2-methoxyethyl)amino]methyl}-1-(2-methylpyridin-4-yl)-1H-pyrazolo[3,4-c]pyridin-5-yl]-3-[(1R)-1-phenylethyl]urea] was run?
Answer: 0.103 µM

Question: For Cc1cc(-n2ncc3cc(NC(=O)N[C@H](C)c4ccccc4)nc(CNCCN(C)C)c32)ccn1 [Example 322, 1-[7-({[2-(dimethylamino)ethyl]amino}methyl)-1-(2-methylpyridin-4-yl)-1H-pyrazolo[3,4-c]pyridin-5-yl]-3-[(1R)-1-phenylethyl]urea], which IC50 is on record?
Answer: 0.0866 µM

Question: How did the IC50 turn out when C[C@@H](NC(=O)Nc1cc2cnn(CCC#N)c2c(CO)n1)c1ccccc1 [Example 323, 1-[1-(2-Cyanoethyl)-7-(hydroxymethyl)-1H-pyrazolo[3,4-c]pyridin-5-yl]-3-[(R)-1-phenylethyl]urea] was run?
Answer: 0.111 µM

Question: C=CC(=O)NCc1nc(NC(=O)N[C@H](C)c2ccccc2)cc2cnn(C)c12 [Example 324, N-{[1-Methyl-5-({[(1R)-1-phenylethyl]carbamoyl}amino)-1H-pyrazolo[3,4-c]pyridin-7-yl]methyl}prop-2-enamide] was tested. Which IC50 did it give?
Answer: 0.432 µM

Question: For CC(=O)NCc1nc(NC(=O)N[C@H](C)c2ccccc2)cc2cnn(-c3ccc(F)cc3)c12 [Example 325, N-{[1-(4-fluorophenyl)-5-({[(1R)-1-phenylethyl]carbamoyl}amino)-1H-pyrazolo[3,4-c]pyridin-7-yl]methyl}acetamide], which IC50 is on record?
Answer: 0.289 µM

Question: COC(=O)NCc1nc(NC(=O)N[C@H](C)c2ccccc2)cc2cnn(-c3ccc(F)cc3)c12 [Example 326, Methyl {[1-(4-fluorophenyl)-5-({[(1R)-1-phenylethyl]carbamoyl}amino)-1H-pyrazolo[3,4-c]pyridin-7-yl]methyl}carbamate] was tested. Which IC50 did it give?
Answer: 0.0176 µM

Question: CCNC(=O)OCc1nc(NC(=O)N[C@H](C)c2ccccc2)cc2cnn(-c3ccc(F)cc3)c12 [Example 327, [1-(4-Fluorophenyl)-5-({[(1R)-1-phenylethyl]carbamoyl}amino)-1H-pyrazolo[3,4-c]pyridin-7-yl]methyl ethylcarbamate] was tested. Which IC50 did it give?
Answer: 0.116 µM

Question: Which IC50 does the source give for C=CC(=O)NC[C@@H](NC(=O)Nc1cc2cnn(C)c2cn1)c1ccccc1 [Example 328, N-[(2S)-2-{[(1-Methyl-1H-pyrazolo[3,4-c]pyridin-5-yl)carbamoyl]amino}-2-phenylethyl]prop-2-enamide] here?
Answer: 0.796 µM

Question: C=CC(=O)NCCc1nc(NC(=O)N[C@H](C)c2ccccc2)cc2cnn(C)c12 [Example 329, N-{2-[1-Methyl-5-({[(1R)-1-phenylethyl]carbamoyl}amino)-1H-pyrazolo[3,4-c]pyridin-7-yl]ethyl}prop-2-enamide] was tested. Which IC50 did it give?
Answer: 0.563 µM
